Data from patent publication US9637473B2, “Acrylamide derivatives as antimalarial agents” (priority 2013, dated 2017).
Counter-ions that a name gives are not always drawn.

What follows are compounds tested on P. Falciparum NF54 (assay: Plasmodium falciparum in vitro assay ([3H]-hypoxanthine incorporation)). Details: P. Falciparum NF54, erythrocytic stages in human red blood cells, 50% human serum.
Type: cell-based
Procedure: In Vitro Antimalarial Activity: Plasmodium falciparum In Vitro Assay: In vitro activity against erythrocytic stages of P. Falciparum in human red blood cells is determined using a [^3H]-hypoxanthine incorporation assay. One strain sensitive to all drugs (P. […] After 48 hours, [^3H]-hypoxanthine (0.5 μCi) is added to each well of a plate. The plates are incubated for a further 24 hours under the same conditions then harvested with a Betaplate cell harvester (Wallac) and washed with distilled water. The dried filters are inserted into a plastic foil with 10 mL of scintillation fluid and counted in a Betaplate liquid scintillation counter. IC50 values are calculated from sigmoidal inhibition curves using Microsoft Excel.

Row | SMILES | IC50 [nM]
1 | CN1CCC(N2C[C@H]3CC(N(Cc4ccc(N(C)c5ccncc5)cc4)C(=O)/C=C/c4ccc(C(F)(F)F)cc4)C[C@H]3C2)CC1 (single isomer, unassigned) [Example 64] | 12

Same assay, conditions: Plasmodium falciparum, Erythrocyte, P. Falciparum NF54, erythrocytic stages in human red blood cells, 50% human serum

Row | IC50 [nM] | SMILES
2 | 370 | Cc1ccc(Nc2ccc(CN(C(=O)/C=C/c3ccc(C(F)(F)F)cc3)C3CCN(C4CCCC4)CC3)cc2)nc1 [Example 98, (E)-N-(1-Cyclopentyl-piperidin-4-yl)-N-[4-(5-methyl-pyridin-2-ylamino)-benzyl]-3-(4-trifluoromethyl-phenyl)-acrylamide]
3 | 39 | Cc1cc(Nc2ccc(CN(C(=O)/C=C/c3ccc(C(F)(F)F)cc3)C3CCN(CC4CC4)CC3)cc2)ccn1 [Example 31, (E)-N-(1-Cyclopropylmethyl-piperidin-4-yl)-N-[4-(2-methyl-pyridin-4-ylamino)-benzyl]-3-(4-trifluoromethyl-phenyl)-acrylamide]
4 | 213 | CC(C)N1CCC(N(Cc2cncc(N(C)c3cccnc3)c2)C(=O)/C=C/c2ccc(C(F)(F)F)cc2)CC1 [Example 134, (E)-N-(1-Isopropyl-piperidin-4-yl)-N-[5-(methyl-pyridin-3-yl-amino)-pyridin-3-ylmethyl]-3-(4-trifluoromethyl-phenyl)-acrylamide formate]
5 | 51 | Cc1cc(Nc2ccc(CN(C(=O)/C=C/c3ccc(C(F)(F)F)cc3)C3CCN(Cc4ccccc4)CC3)cc2)ccn1 [Example 37, (E)-N-(1-Benzyl-piperidin-4-yl)-N-[4-(2-methyl-pyridin-4-ylamino)-benzyl]-3-(4-trifluoromethyl-phenyl)-acrylamide]
6 | 96 | CC(C)N1CCN(c2ccc(CN(C(=O)/C=C/c3ccc(C(F)(F)F)cc3)C3CCN(C4CCCC4)CC3)cc2)CC1 [Example 199, (E)-N-(1-Cyclopentyl-piperidin-4-yl)-N-[4-(4-isopropyl-piperazin-1-yl)-benzyl]-3-(4-trifluoromethyl-phenyl)-acrylamide]
7 | 121 | CN(c1ccncc1)c1ccc(CN(C(=O)/C=C/c2ccc(C(F)(F)F)cc2)C2CCNCC2)cc1 [Example 1, (E)-N-[4-(Methyl-pyridin-4-yl-amino)-benzyl]-N-piperidin-4-yl-3-(4-trifluoromethyl-phenyl)-acrylamide]
8 | 58 | CN(c1ccncc1)c1ccc(CN(C(=O)/C=C/c2ccc(C(F)(F)F)nc2)C2CCN(Cc3ccccc3)CC2)cc1 [Example 161, (E)-N-(1-Benzyl-piperidin-4-yl)-N-[4-(methyl-pyridin-4-yl-amino)-benzyl]-3-(6-trifluoromethyl-pyridin-3-yl)-acrylamide]
9 | 269 | O=C(/C=C/c1ccc(C(F)(F)F)cc1)N(Cc1ccc(Nc2ccncn2)cc1)C1CCN(C2CCCC2)CC1 [Example 92, (E)-N-(1-Cyclopentyl-piperidin-4-yl)-N-[4-(pyrimidin-4-ylamino)-benzyl]-3-(4-trifluoromethyl-phenyl)-acrylamide]
10 | 39 | CN1CCC(N2CCC(N(Cc3ccc(N(C)c4ccncc4)nc3)C(=O)/C=C/c3ccc(C(F)(F)F)cc3)CC2)CC1 [Example 112, (E)-N-(1′-Methyl-[1,4′]bipiperidinyl-4-yl)-N-[6-(methyl-pyridin-4-yl-amino)-pyridin-3-ylmethyl]-3-(4-trifluoromethyl-phenyl)-acrylamide]
11 | 44 | Cc1cc(N(C)c2ccc(CN(C(=O)/C=C/c3ccc(C(F)(F)F)cc3)C3CCN(C4CCCC4)CC3)cc2)ccn1 [Example 184, (E)-N-(1-Cyclopentyl-piperidin-4-yl)-N-{4-[methyl-(2-methyl-pyridin-4-yl)-amino]-benzyl}-3-(4-trifluoromethyl-phenyl)-acrylamide]
12 | 268 | Cc1cc(Nc2ccc(CN(C(=O)/C=C/c3ccc(C(F)(F)F)cc3)C3CCN(Cc4cnc(C)nc4)CC3)cc2)ccn1 [Example 51, (E)-N-[4-(2-Methyl-pyridin-4-ylamino)-benzyl]-N-[1-(2-methyl-pyrimidin-5-ylmethyl)-piperidin-4-yl]-3-(4-trifluoromethyl-phenyl)-acrylamide]
13 | 63 | CN(c1ccncc1)c1ccc(CN(C(=O)/C=C/c2ccc(C(F)(F)F)cc2)[C@H]2CC[C@H](N(C)C)CC2)cc1 [Example 190, (±)-trans-(E)-N-(4-Dimethylamino-cyclohexyl)-N-[4-(methyl-pyridin-4-yl-amino)-benzyl]-3-(4-trifluoromethyl-phenyl)-acrylamide]
14 | 122 | CC(C)CCN1CC[C@@H](N(Cc2ccc(N(C)c3ccncc3)cc2)C(=O)/C=C/c2ccc(C(F)(F)F)cc2)[C@H](F)C1 (racemic) [Example 81, (±)-(E)-N-(trans-3-fluoro-1-isopentylpiperidin-4-yl)-N-(4-(methyl(pyridin-4-yl)amino)benzyl)-3-(4-(trifluoromethyl)phenyl)acrylamide]
15 | 102 | CC(C)Oc1ccc(/C=C/C(=O)N(Cc2ccc(N(C)c3ccncc3)cc2)C2CCN(Cc3ccccc3)CC2)cc1 [Example 143, (E)-N-(1-Benzyl-piperidin-4-yl)-3-(4-isopropoxy-phenyl)-N-[4-(methyl-pyridin-4-yl-amino)-benzyl]-acrylamide]
16 | 101 | Cc1cc(Nc2ccc(CN(C(=O)/C=C/c3ccc(C(F)(F)F)cc3)C3CCN(Cc4cccnc4)CC3)cc2)ccn1 [Example 48, (E)-N-[4-(2-Methyl-pyridin-4-ylamino)-benzyl]-N-(1-pyridin-3-ylmethyl-piperidin-4-yl)-3-(4-trifluoromethyl-phenyl)-acrylamide]
17 | 340 | CC(C)N1CCC(N(Cc2cccc(Nc3ccncn3)c2)C(=O)/C=C/c2ccc(C(F)(F)F)cc2)CC1 [Example 125, (E)-N-(1-Isopropyl-piperidin-4-yl)-N-[3-(pyrimidin-4-ylamino)-benzyl]-3-(4-trifluoromethyl-phenyl)-acrylamide formate]
18 | 243 | Cc1cc(Nc2ccc(CN(C(=O)/C=C/c3ccc(C(F)(F)F)cc3)C3CCN(Cc4scnc4C)CC3)cc2)ccn1 [Example 35, (E)-N-[4-(2-Methyl-pyridin-4-ylamino)-benzyl]-N-[1-(4-methyl-thiazol-5-ylmethyl)-piperidin-4-yl]-3-(4-trifluoromethyl-phenyl)-acrylamide]
19 | 49 | CN(c1ccncc1)c1ccc(CN(C(=O)/C=C/c2ccc(C(F)(F)F)cc2)[C@H]2CC[C@H](N3CCCC3)CC2)cc1 [Example 193, (±)-trans-(E)-N-[4-(Methyl-pyridin-4-yl-amino)-benzyl]-N-(4-pyrrolidin-1-yl-cyclohexyl)-3-(4-trifluoromethyl-phenyl)-acrylamide]
20 | 21 | CN1CCC(N2CCC3(CCC(N(Cc4ccc(N(C)c5ccncc5)cc4)C(=O)/C=C/c4ccc(C(F)(F)F)cc4)CC3)CC2)CC1 [Example 65, (E)-N-(4-(methyl(pyridin-4-yl)amino)benzyl)-N-(3-(1-methylpiperidin-4-yl)-3-azaspiro[5.5]undecan-9-yl)-3-(4-(trifluoromethyl)phenyl)acrylamide]
21 | 43 | Cc1cc(Nc2ccc(CN(C(=O)/C=C/c3ccc(C(F)(F)F)cc3)C3CCN(C4CCCC4)C3)cc2)ccn1 (racemic) [Example 101, (±)-(E)-N-(1-Cyclopentyl-pyrrolidin-3-yl)-N-[4-(2-methyl-pyridin-4-ylamino)-benzyl]-3-(4-trifluoromethyl-phenyl)-acrylamide]
22 | 69 | CN(c1ccncc1)c1ccc(CN(C(=O)/C=C/c2ccc(OC(F)F)cc2)C2CCN(Cc3ccccc3)CC2)cc1 [Example 145, (E)-N-(1-Benzyl-piperidin-4-yl)-3-(4-difluoromethoxy-phenyl)-N-[4-(methyl-pyridin-4-yl-amino)-benzyl]-acrylamide]
23 | 176 | CN(c1ccncc1)c1ccc(CN(C(=O)/C=C/c2ccc(C(F)(F)F)cc2)C2CCN(Cc3ccccn3)CC2)cc1 [Example 22, (E)-N-[4-(Methyl-pyridin-4-yl-amino)-benzyl]-N-(1-pyridin-2-ylmethyl-piperidin-4-yl)-3-(4-trifluoromethyl-phenyl)-acrylamide]
24 | 43 | CC(C)CCN1CCC(N(Cc2ccc(N(C)c3ccncc3)cc2)C(=O)/C=C/c2ccc(C(F)(F)F)cc2)CC1 [Example 8, (E)-N-[1-(3-Methyl-butyl)-piperidin-4-yl]-N-[4-(methyl-pyridin-4-yl-amino)-benzyl]-3-(4-trifluoromethyl-phenyl)-acrylamide]
25 | 207 | Cc1cc(Nc2ccc(CN(C(=O)/C=C/c3ccc(C(F)(F)F)cc3)C3CCN(Cc4nccn4C)CC3)cc2)ccn1 [Example 41, (E)-N-[1-(1-Methyl-1H-imidazol-2-ylmethyl)-piperidin-4-yl]-N-[4-(2-methyl-pyridin-4-ylamino)-benzyl]-3-(4-trifluoromethyl-phenyl)-acrylamide]
26 | 165 | Cc1cc(Nc2ccc(CN(C(=O)/C=C/c3ccc(C(F)(F)F)cc3)C3CCN(C4CCN(C)CC4)CC3)cn2)ccn1 [Example 111, (E)-N-(1′-Methyl-[1,4′]bipiperidinyl-4-yl)-N-[6-(2-methyl-pyridin-4-ylamino)-pyridin-3-ylmethyl]-3-(4-trifluoromethyl-phenyl)-acrylamide]
27 | 30 | CC(C)N1CCC(N(Cc2cccc(Nc3ccncc3)c2)C(=O)/C=C/c2ccc(C(F)(F)F)cc2)CC1 [Example 126, (E)-N-(1-Isopropyl-piperidin-4-yl)-N-[3-(pyridin-4-ylamino)-benzyl]-3-(4-trifluoromethyl-phenyl)-acrylamide formate]
28 | 21 | COc1ccc2nc(C)cc(Nc3ccc(CN(C(=O)/C=C/c4ccc(C(F)(F)F)cc4)C4CCN(C5CCCC5)CC4)cc3)c2c1 [Example 100, (E)-N-(1-Cyclopentyl-piperidin-4-yl)-N-[4-(6-methoxy-2-methyl-quinolin-4-ylamino)-benzyl]-3-(4-trifluoromethyl-phenyl)-acrylamide]
